Data: patent US20230331739A1, “INDOLO HEPTAMYL OXIME ANALOG CRYSTAL AS PARP INHIBITOR AND METHOD FOR PREPARING SAME” (CHIA TAI TIANQING PHARMACEUTICAL GROUP CO., LTD., priority 2020, published 2023)

Tests used:
[1] = test system: MDA-MB-436 cells with BRCA1 mutation; experiment: Anti-proliferation study on MDA-MB-436 cells (CellTiter-Glo); type: cell-based; conditions: Homo sapiens, MDA-MB-436, 168 h; 7 days incubation
Method: Materials: test compounds; RPMI-1640 medium; fetal bovine serum; penicillin/streptomycin antibiotic; MDA-MB-436 cells; Envision Multimode Plate Reader (PerkinElmer). MDA-MB-436 cells were seeded in a white 96-well plate by adding 80 μL of cell suspension (containing 3000 MDA-MB-436 cells) to each well. The cell plate was incubated in a CO2 incubator overnight. The test compounds were serially 5-fold diluted to the 8th concentration with a multichannel pipette, i.e., from 2 mM to 26 nM, in duplicate. 78 μL of medium was added to an intermediate plate, and the serially diluted compound was transferred to the intermediate plate at 2 μL per well. After being mixed well, the mixture was transferred to the cell plate at 20 μL per well. […] Another cell plate was provided for reading signal values on the day of compound addition and these signal values were used as Max values in data analysis. Promega CellTiter-Glo was added to the cell plate at 25 μL per well and the luminescence signals were stabilized by incubation for 10 min at room temperature. Readings were taken using a PerkinElmer Envision Multimode Plate Reader. […]

[2] = test system: MDA-MB-231 cells with wild-type BRCA; experiment: Anti-proliferation study on MDA-MB-231 cells (CellTiter-Glo); type: cell-based; conditions: Homo sapiens, MDA-MB-231, 72 h; 3 days incubation
Method: Materials: test compounds; R DMEM medium; fetal bovine serum; penicillin/streptomycin antibiotic; MDA-MB-231 cells; Envision Multimode Plate Reader.
MDA-MB-231 cells were seeded in a white 96-well plate by adding 80 μL of cell suspension (containing 5000 MDA-MB-231 cells) to each well. The cell plate was incubated in a CO2 incubator overnight.
Eight concentrations were set for each compound. The test compounds were serially 3-fold diluted to the 8th concentration with a multichannel pipette, i.e., from 2 mM to 920 nM, in duplicate. 78 μL of medium was added to an intermediate plate, and the serially diluted compound was transferred to the intermediate plate at 2 μL per well. After being mixed well, the mixture was transferred to the cell plate at 20 μL per well. […] Another cell plate was provided for reading signal values on the day of compound addition and these signal values were used as Max values in data analysis. Promega CellTiter-Glo was added to the cell plate at 25 μL per well and the luminescence signals were stabilized by incubation for 10 min at room temperature. Readings were taken using a PerkinElmer Envision Multimode Plate Reader.
Promega CellTiter-Glo was added to the cell plate at 25 μL per well and the luminescence signals were stabilized by incubation for 10 min at room temperature. Readings were taken using a PerkinElmer Envision Multimode Plate Reader. […]

[3] = Protein binding rate in plasma (equilibrium dialysis), CD-1 mouse; type: in vitro ADME; conditions: CD-1 mouse plasma, 4 h dialysis
Method: The protein binding rates of the compound disclosed herein in plasma of human, CD-1 mice and SD rats were determined. 796 μL of blank plasma was taken from human, CD-1 mice or SD rats, and 4 μL of test compound working solution (400 μM) or warfarin working solution (400 μM) was added to achieve a final concentration of 2 μM of both the test compound and the warfarin in the plasma sample. The samples were mixed well. The final concentration of organic phase DMSO was 0.5%; 50 μL of test compound and warfarin plasma sample was pipetted into a sample receiving plate (in triplicate), and a corresponding volume of blank plasma or buffer was immediately added such that the final volume in each sample well was 100 μL. The volume ratio of plasma to dialysis buffer was 1:1. […] All samples were subjected to LC/MS analysis after protein precipitation, and the protein binding rates and the recovery rates were calculated by the following formulas: protein unbinding rate (%)=100× drug concentration passing through dialysis membrane/drug concentration not passing through dialysate; protein binding rate (%)=100−protein unbinding rate (%); recovery rate (%)=100×(drug concentration passing through dialysis membrane+drug concentration not passing through dialysate)/total drug concentration before dialysis.

CYP2C19 = CYP2C19 (Homo sapiens (Human), UniProt P33261); experiment: Inhibition against cytochrome P450 isoenzymes, CYP2C19; type: in vitro ADME; conditions: human liver microsomes
Method: The inhibition of the test compound against different subtypes of the human cytochrome P450 isoenzyme was determined. The test compound, a standard inhibitor (100×final concentration) and a mixed substrate working solution were prepared; the microsomes frozen in a refrigerator at −80° C. were taken out and thawed. […]

CYP2C19, sequence (P33261 whole entry): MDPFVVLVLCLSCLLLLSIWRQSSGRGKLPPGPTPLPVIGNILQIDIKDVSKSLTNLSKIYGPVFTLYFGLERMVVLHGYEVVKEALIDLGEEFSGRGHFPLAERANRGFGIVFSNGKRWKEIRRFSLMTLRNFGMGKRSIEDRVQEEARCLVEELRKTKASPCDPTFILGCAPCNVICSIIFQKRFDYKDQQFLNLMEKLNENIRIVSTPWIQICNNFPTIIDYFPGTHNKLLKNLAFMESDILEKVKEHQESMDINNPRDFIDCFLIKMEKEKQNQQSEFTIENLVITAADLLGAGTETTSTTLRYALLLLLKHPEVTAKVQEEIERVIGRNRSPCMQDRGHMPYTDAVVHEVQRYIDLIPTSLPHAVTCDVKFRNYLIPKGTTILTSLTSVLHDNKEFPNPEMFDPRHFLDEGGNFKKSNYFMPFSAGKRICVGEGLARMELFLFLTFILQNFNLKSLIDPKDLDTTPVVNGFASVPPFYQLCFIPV

C[C@]1(c2ccc(-c3[nH]c4cc(F)cc5c4c3CONC5=O)cc2)CCCN1 [Compound 1]
IC50 [1]: 0.0123 µM | IC50 [2]: > 10 µM | fraction unbound at 4 h, 2 μM [3]: 0.104 | IC50 (CYP2C19): 8.33 µM
